In brackets after ≈: the same amount, converted by molar mass. Like-named read-outs stand apart in the source and are kept apart here.

One data set has as its system Plasmodium falciparum. Description: In vitro anti-malarial activity against Plasmodium falciparum, IC50 assay / [3H]-hypoxanthine incorporation assay. The format is cell-based. Particulars: Erythrocyte, parasitized red blood cells, 48 hours. How it is done:
In Vitro Anti-malarial Activity Against Plasmodium falciparum
IC50 Assay/[^3H]-Hypoxanthine Assay
Plasmodium falciparum strains.
The culture medium comprised RPMI 1640 with 25 mM HEPES, sodium bicarbonate and glutamine (GIBCO™ cat. ref.: 52400), supplemented with 10% of pooled human sera AB (Irvine Scientific, cat. ref.: 5009) and HT supplement (0.15 mM hypoxanthine and 24 μM thymidine), (GIBCO™ cat. ref.: 41065). Human sera were decomplemented 30 min. at 56° C., aliquoted and stored frozen at −20° C. until use in this culture medium.
Red blood cells O+ stock suspensions were prepared from whole blood bags coming from incomplete blood donation, provided by the Spanish Red Cross (<25 days after sampling). This “whole blood” was aliquoted and stored at 4° C.
To prepare red blood cells for the assay, the whole blood was centrifuged and washed 3 times with RPMI without serum. The upper phase, containing white blood cells was removed. The washed red blood cells were kept as a 50% suspension in complete medium. The prepared cells were stored at 4° C. and were employed in the assay at any time up to 4 days after preparation.
Test compounds were dissolved at 2 mg/ml in 100% DMSO on the day of the assay. If necessary, complete dissolution was achieved by gentle heating (the mixture was heated at a temperature <37° C.) and sonication (sonication bath).
For IC50 determinations, 10 serial 2-fold dilutions were prepared in complete medium in the presence of a constant amount of DMSO.
Plasmodium falciparum strains were maintained in complete medium at an hematocrit of 5% in continuous culture using a method adapted from Trager and Jensen (1, 2).
The parasitemia was calculated by counting the percentage of parasitized erythrocytes by optical microscopy. Thin films of blood were made every day from each culture flask, fixed with methanol and stained for 10 min. in Giemsa (Merck, cat ref.: 1.09204) at 10% in buffered water pH 7.2. The glass slides were observed and counted with an optical microscope (Nikon, Eclipse E200) equipped with a 100× immersion oil objective.
The culture was maintained at an hematocrit of 5%, with a daily change of medium and was diluted when parasitemia had reached about 5%.
[^3H] Hypoxanthine incorporation assay was conducted using a method adapted from Desjardins et al. (3). The assays were performed in 96 wells flat bottom microplates.
1. Serial dilutions of the test compounds (50 μl of a 5× solution/well) were deposited in duplicate. Compounds of the invention were tested in this assay. Chloroquine and Atovaquone were used as control compounds for each assay.
3. [^3H]-Hypoxanthine (Amersham Biosciences, cat. ref.: TRK74) was added extemporaneously to the inoculum suspension at a concentration of 1 μCi/ml (equating to […]). 200 μl of the resulting suspension was distributed into each well (other than the control well H12 described below) leading to a final volume of 250 μl per well, at 2% of hematocrit and 0.5% of parasitemia/well.
4. In each plate, 2 columns were reserved for control wells: • Column 11: Positive control wells: PRBCs with 0.2% DMSO—(i) to determine DMSO solvent effect on parasite growth (at a final concentration of 0.2%) and (ii) to compare with cultures treated with test compounds. • Column 12 (comprising wells A12-H12): • A12-D12—Background value wells: Uninfected RBCs—blank control to obtain the background reading from RBCs without parasites. • E12-G12—Solvent effect wells: PRBCs without DMSO—to determine DMSO solvent effect on PRBCs by comparing these wells with column 11 wells. • H12-Non-radioactive well: PRBCs with cold hypoxanthine—(i) to carry out a thin blood film to determine parasitemia value after incubation by microscopy and (ii) to ensure that the parasites have grown properly during the assay. (200 μl of inoculum suspension was prepared as described above (Items 2 and 3) but with non-tritiated hypoxanthine instead of [3H]-hypoxanthine, then added to this well to a final volume of 250 μl). […]

Data set [1] is described as follows: Compound solubility determination (gross and equilibrium solubility; FaSSIF, FeSSIF, pH 7.4 PBS, pH 1.0 0.1N HCl, pH 4.5 sodium citrate). The format is physicochemical. Particulars: thermodynamic from solid. The method, then:
Compound Solubility Determination
An amount of 3 mg solid compound with LC-MS purity ≧95% was required. This amount was split between 3 different glass vials (1.8 ml volume each), placing 1 mg compound into each one.
Organic solvents of HPLC grade were used. Ultra pure water (Milli-Q grade) was used. Buffers were prepared with ultra pure water and filtered using 0.45μ cameo filters. The compositions of each solvent employed in this assay are described below (part III).
2. Determination of Equilibrium Solubility (Assuming Chemical Stability in the Desired Solvent is not a Problem).
For each of the three vial samples prepared as described above, in which the amount of compound was totally dissolved, the following procedure was subsequently carried out: • a) A small amount (approx. 0.1 mg) of additional solid compound was added to the vial to maintain an excess of the compound in the mixture in the form of undissolved solid. • b) The samples were magnetically stirred for 24 hr. If required, additional solid compound (0.1 mg) was added to maintain excess of it and then the samples were stirred again. • c) Then the samples were filtered (Millipore Milex filters nylon 0.2 um) and three aliquots were taken (one from each of the three vials) and analysed by LC-MS. • d) The pH of the final solution in each sample was measured with a pH-meter (WTW pH330i and a pH-electrode Sentix 41).
3. LC-MS Assay for Analytical Quantification
All filtered aliquots were analysed by LC-MS. The analysis was carried out with a Luna 5 μC18 (2) column 4.6×150 mm, using a HP1100 HPLC instrument interfaced with a Waters ZMD-2000 MS spectrometer. The concentration of the final sample as prepared above was calculated from that of a reference calibration curve obtained from serial dilutions of a 2 mM solution of the compound under investigation in DMSO (Aldrich cat. ref.: 27685-5) stock solution.
The analysis of all LC-MS data was performed with MassLynx 3.4 software. Statistical and graphic analysis of data was performed using Microsoft Excel. The concentration (uM) and solubility (ug/ml) for each compound was calculated using the peak areas from the sample and those from the calibration curve.
A) FaSSIF is a solvent which simulates the Fasted State of the Intestinal Fluid. (FaSSIF: Fasted State Simulated Intestinal Fluid).
B) FeSSIF is a solvent which simulates the Fed State of the Intestinal Fluid. (FeSSIF: Fed State Simulated Intestinal Fluid).
C) Solubility at pH 7.4 was determined in phosphate buffered saline (PBS) (Fluka cat. ref: 79383)
D) Solubility at pH 1.0 was determined in 0.1N HCl solution (Scharlau AL0744010C)
E) Solubility at pH 4.5 was determined in sodium citrate 0.5M solution. (Aldrich 25, 127-5)

The mark [2] stands for this setting: 0.1N HCl solution, simulated gastric fluid, pH 1 (HCl), read-out: Solubility at pH 1 (HCl).
Where [3] appears, read: FaSSIF (fasted state simulated intestinal fluid), fassif, read-out: Solubility in FaSSIF.
Setting [4] is: FeSSIF (fed state simulated intestinal fluid), fessif, read-out: Solubility in FeSSIF.
Where [5] appears, read: phosphate buffered saline (PBS), aqueous buffer, pH 7.4 (PBS), read-out: Solubility at pH 7.4 (PBS).
The mark [6] stands for this setting: sodium citrate 0.5M solution, aqueous buffer, pH 4.5 (Na citrate), read-out: Solubility at pH 4.5 (Na citrate).

As for `Cc1[nH]c(C)c(-c2ccc(-c3ccc4c(c3)OCO4)nc2)c(=O)c1Cl` [Example 54], the 50% inhibitory concentration (IC50) in the data set on Plasmodium falciparum is under 0.125 µg/mL.

In the data set on Plasmodium falciparum, `Cc1[nH]c(C)c(-c2ccc(-c3ccc(C(F)(F)F)cc3)nc2)c(=O)c1Cl` [Example 30, 5-Chloro-2,6-dimethyl-6′-{4-[trifluoromethyl]phenyl}-3,3′-bipyridin-4(1H)-one] registered an IC50 of under 0.125 µg/mL.

In the data set on Plasmodium falciparum, `Cc1[nH]c(C)c(-c2ccc(CCc3cccc(C(F)(F)F)c3)nc2)c(=O)c1Br` [Example 43, 5-Bromo-2,6-dimethyl-6′-{2-[3-(trifluoromethyl)phenyl]ethyl}-3,3′-bipyridin-4(1H)-one] had an IC50 of under 0.125 µg/mL.

Turning to `Cc1[nH]c(C)c(-c2ccc(Oc3ccc(OC(F)(F)F)cc3)cc2)c(=O)c1Cl` [comparator Y], the solubility at 24 h was under 1 µg/mL in data set [1] (setting [2]); under 1 µg/mL in data set [1] (setting [3]); 1 to 5 µg/mL (≈ 2.44 to 12.2 µM) in data set [1] (setting [4]); under 1 µg/mL in data set [1] (setting [5]); under 1 µg/mL in data set [1] (setting [6]).

Take `Cc1[nH]c(C)c(-c2ccc(Oc3cccc(C(F)(F)F)c3)cc2)c(=O)c1Cl` [Compound Z, 3-Chloro-2,6-dimethyl-5-(4-{[3-(trifluoromethyl)phenyl]oxy}phenyl)-4(1H)pyridinone, reference compound]: the IC50 with Plasmodium falciparum is under 0.125 µg/mL.

In the data set with Plasmodium falciparum, `Cc1[nH]c(C)c(-c2ccc(OCc3ccc(C(F)(F)F)cc3)nc2)c(=O)c1Br` [Example 3, 5-Bromo-2,6-dimethyl-6′-{[4-(trifluoromethyl)benzyl]oxy}-3,3′-bipyridin-4(1H)-one] showed a half-inhibitory concentration (IC50) of under 0.125 µg/mL.

`Cc1[nH]c(C)c(-c2ccc(-c3ccc(C(F)F)cc3)nc2)c(=O)c1Cl` [Example 63, 5-Chloro-2,6-dimethyl-6′-{4-[difluoromethyl]phenyl}-3,3′-bipyridin-4(1H)-one] came in with an IC50 in the data set on Plasmodium falciparum of under 0.125 µg/mL.

The compound `Cc1[nH]c(C)c(-c2ccc(OCc3cccc(C(F)(F)F)c3)nc2)c(=O)c1Br` [Example 2, 5-Bromo-2,6-dimethyl-6′-{[3-(trifluoromethyl)benzyl]oxy}-3,3′-bipyridin-4(1H)-one] yielded a concentration for half-maximal inhibition (IC50) in the data set with Plasmodium falciparum of under 0.125 µg/mL.

With `Cc1[nH]c(C)c(-c2ccc(-c3ccc(Cl)cc3)nc2)c(=O)c1Cl` [Example 33, 5-Chloro-6′-(4-chlorophenyl)-2,6-dimethyl-3,3′-bipyridin-4(1H)-one], the IC50 with Plasmodium falciparum was under 0.125 µg/mL.

For `Cc1[nH]c(C)c(-c2ccc(-c3ccc(OC(F)(F)F)cc3)nc2)c(=O)c1Cl` [Example 27, 5-Chloro-2,6-dimethyl-6′-{4-[(trifluoromethyl)oxy]phenyl}-3,3′-bipyridin-4(1H)-one], the IC50 in the data set on Plasmodium falciparum was under 0.125 µg/mL.

On to `Cc1[nH]c(C)c(-c2ccc(CCc3ccc(F)cc3F)nc2)c(=O)c1Cl` [Example 46, 5-Chloro-6′-{2-[2,4-difluorophenyl]ethyl}-2,6-dimethyl-3,3′-bipyridin-4(1H)-one], for which the IC50 in the data set on Plasmodium falciparum was under 0.125 µg/mL.

In turn, `Cc1[nH]c(C)c(-c2ccc(OCc3ccccc3C(F)(F)F)nc2)c(=O)c1Cl` [Example 11, 5-Chloro-2,6-dimethyl-6′-{[2-(trifluoromethyl)benzyl]oxy}-3,3′-bipyridin-4(1H)-one] returned an IC50 in the data set with Plasmodium falciparum of under 0.125 µg/mL.

`Cc1[nH]c(C)c(-c2ccc(C#Cc3ccc(C(F)(F)F)cc3)nc2)c(=O)c1Br` [Example 40, 5-Bromo-2,6-dimethyl-6′-{[4-(trifluoromethyl)phenyl]ethynyl}-3,3′-bipyridin-4(1H)-one] came in with a 50% inhibitory concentration (IC50) with Plasmodium falciparum of under 0.125 µg/mL.

The compound `Cc1[nH]c(C)c(-c2ccc(-c3ccc(OCC(F)(F)F)cc3)nc2)c(=O)c1Cl` [Example 62, 5-Chloro-2,6-dimethyl-6′-{4-[2,2,2-trifluoroethoxy]phenyl}-3,3′-bipyridin-4(1H)-one] had a half-inhibitory concentration (IC50) with Plasmodium falciparum of under 0.125 µg/mL.

Consider `Cc1[nH]c(C)c(-c2ccc(OCc3cc(F)cc(F)c3)nc2)c(=O)c1Br` [Example 7, 5-Bromo-6′-{[3,5-difluorobenzyl]oxy}-2,6-dimethyl-3,3′-bipyridin-4(1H)-one], for which the half-inhibitory concentration (IC50) with Plasmodium falciparum is under 0.125 µg/mL.

`Cc1[nH]c(C)c(-c2ccc(-c3cccc(Cl)c3)nc2)c(=O)c1Cl` [Example 34, 5-Chloro-6′-(3-chlorophenyl)-2,6-dimethyl-3,3′-bipyridin-4(1H)-one]: the IC50 in the data set on Plasmodium falciparum is under 0.125 µg/mL.

As to `Cc1[nH]c(C)c(-c2ccc(-c3ccccc3OC(F)(F)F)nc2)c(=O)c1Cl` [Example 29, 5-Chloro-2,6-dimethyl-6′-{2-[(trifluoromethyl)oxy]phenyl}-3,3′-bipyridin-4(1H)-one], in the data set with Plasmodium falciparum, the IC50 was under 0.125 µg/mL.

Take `Cc1nc(C)c(-c2ccc(-c3ccc(Cl)cc3)cc2)c(O)c1Br` [comparator X]: the solubility at 24 h in data set [1] (setting [2]) was under 1 µg/mL; in data set [1] (setting [3]) it was 5 to 10 µg/mL (≈ 12.9 to 25.7 µM); in data set [1] (setting [4]), 5 to 10 µg/mL (≈ 12.9 to 25.7 µM); in data set [1] (setting [5]), under 1 µg/mL; in data set [1] (setting [6]), under 1 µg/mL.

As for `CCCCCCCc1ccc(-c2c(C)[nH]c(C)c(Cl)c2=O)cn1` [Example 47, 5-Chloro-6′-(n-heptyl)-2,6-dimethyl-3,3′-bipyridin-4(1H)-one], in the data set on Plasmodium falciparum, the 50% inhibitory concentration (IC50) is under 0.125 µg/mL.

For the compound `Cc1[nH]c(C)c(-c2ccc(Oc3cccc(C(F)(F)F)c3)cc2)c(=O)c1Cl` [comparator Z], the solubility at 24 h in data set [1] (aqueous buffer, pH 4.5 (Na citrate), read-out: Solubility at pH 4.5 (Na citrate)) was under 1 µg/mL; in data set [1] (aqueous buffer, pH 7.4 (PBS), read-out: Solubility at pH 7.4 (PBS)), under 1 µg/mL; in data set [1] (fassif, read-out: Solubility in FaSSIF), under 1 µg/mL; in data set [1] (fessif, read-out: Solubility in FeSSIF), 1 to 5 µg/mL (≈ 2.54 to 12.7 µM); in data set [1] (simulated gastric fluid, pH 1 (HCl), read-out: Solubility at pH 1 (HCl)), under 1 µg/mL.

(Values after patent US7579353B2, “Pyridinone derivatives against malaria” (Glaxo Group Limited, priority 2005, dated 2009).)
